Experimental data as given in DBAASP.
Values after ≈ are worked out from the molar mass of the structure shown.

Columns and labels:
[1] = tested on: Escherichia coli ATCC 25922; assay: ≥ marks a high value that may be exact or a test limit, other limits are often not marked, values filed in µg/mL are converted to µM
[2] = tested on: Staphylococcus aureus ATCC 25923; assay: as above

SMILES	MIC [1] [µM]	MIC [2] [µM]
CSCC[C@H](NC(=O)[C@H](Cc1c[nH]c2ccccc12)NC(=O)[C@H](CC(C)C)NC(=O)[C@H](C)N)C(=O)N[C@H](C(=O)N[C@@H](CC(C)C)C(=O)N[C@@H](CC(C)C)C(=O)N[C@@H](CCCCN)C(=O)N[C@@H](CCCCN)C(=O)N[C@H](C(=O)N[C@@H](CC(C)C)C(=O)N[C@@H](CCCCN)C(=O)N[C@@H](C)C(N)=O)C(C)C)[C@@H](C)O [ALWMTLLKKVLKA]	25 (≈ 37.9 µg/mL)	6 (≈ 9.08 µg/mL)
CC(C)C[C@H](NC(=O)[C@H](CC(C)C)NC(=O)[C@H](CC(C)C)NC(=O)[C@@H]1CCCN1C(=O)[C@H](CC(C)C)NC(=O)[C@@H](N)Cc1ccccc1)C(=O)N[C@@H](C)C(=O)NCC(=O)N[C@@H](CC(C)C)C(=O)N1CCC[C@H]1C(=O)N[C@@H](CCCCN)C(=O)N[C@@H](CC(C)C)C(=O)N[C@@H](CC(C)C)C(=O)N[C@H]1CSSC[C@@H](C(=O)O)NC(=O)[C@H](CCCCN)NC(=O)[C@H](CCCCN)NC(=O)[C@H](Cc2ccccc2)NC(=O)[C@H](Cc2ccccc2)NC(=O)[C@H](CC(C)C)NC1=O [FLPLLLAGLPKLLCLFFKKC]	15 (≈ 34.1 µg/mL)	15 (≈ 34.1 µg/mL)
CC[C@H](C)[C@H](NC(=O)[C@H](Cc1ccccc1)NC(=O)CN)C(=O)N[C@@H](CO)C(=O)N[C@H](C(=O)N[C@H](C(=O)N[C@@H](CCCCN)C(=O)N[C@@H](CC(N)=O)C(=O)N[C@@H](CC(C)C)C(=O)N[C@@H](C)C(=O)N[C@H](C(=O)N[C@@H](CC(N)=O)C(=O)N[C@H](C(=O)N[C@@H](C)C(=O)NCC(=O)N[C@H](C(=O)N[C@H](C(=O)N[C@H](C(=O)N[C@@H](CC(=O)O)C(=O)N[C@H](C(=O)N[C@H](C(=O)N[C@@H](CCCCN)C(=O)N[C@H]1CSSC[C@@H](C(=O)O)NC(=O)CNC(=O)CNC(=O)[C@H]([C@@H](C)O)NC(=O)[C@H](C(C)C)NC(=O)[C@H](CCCCN)NC1=O)[C@@H](C)CC)[C@@H](C)O)[C@@H](C)CC)C(C)C)[C@@H](C)O)C(C)C)[C@@H](C)O)C(C)C)[C@@H](C)O [GFISTVKNLATNVAGTVIDTIKCKVTGGC]	110 (≈ 320 µg/mL)	
CC[C@H](C)[C@H](NC(=O)[C@H](CCC(=O)O)NC(=O)[C@H](C)NC(=O)[C@@H](NC(=O)[C@H](CCCCN)NC(=O)[C@H](CCCCN)NC(=O)CN)[C@@H](C)O)C(=O)N[C@@H](CCC(=O)O)C(=O)N[C@@H](CCCCN)C(=O)O [GKKTAEIEK]	2490 (≈ 2500 µg/mL)	1250 (≈ 1250 µg/mL)
CC[C@H](C)[C@H](NC(=O)[C@H](CCCN=C(N)N)NC(=O)[C@H](CCCCN)NC(=O)[C@H](CC(C)C)NC(=O)[C@H](CC(C)C)NC(=O)CN)C(=O)N[C@@H](CCCCN)C(=O)N[C@@H](Cc1c[nH]c2ccccc12)C(=O)N[C@@H](CC(C)C)C(=O)N[C@@H](CC(C)C)C(N)=O [GLLKRIKWLL]	1.61 (≈ 2 µg/mL)	3.23 (≈ 4 µg/mL)
CC(C)[C@@H]1NC(=O)CNC(=O)[C@H](CCCN=C(N)N)NC(=O)[C@H](CCCN=C(N)N)NC(=O)[C@@H]2CSSC[C@H](NC1=O)C(=O)N[C@@H](CCCN=C(N)N)C(=O)N[C@H]1CSSC[C@H](NC(=O)[C@H](CCCN=C(N)N)NC(=O)[C@@H](NC(=O)[C@@H](NC(=O)CN)C(C)C)CSSC[C@@H](C(=O)N[C@@H](CCCN=C(N)N)C(=O)N[C@@H](CCCN=C(N)N)C(=O)O)NC(=O)[C@H](C(C)C)NC1=O)C(=O)N[C@@H](C(C)C)C(=O)N2 [GVCRCVCRRGVCRCVCRR]	32 (≈ 66.5 µg/mL)	> 32
CC[C@H](C)[C@H](NC(=O)[C@H](CCCN=C(N)N)NC(=O)[C@H](CCCCN)NC(=O)[C@H](CC(C)C)NC(=O)[C@H](CC(C)C)NC(=O)[C@@H](N)CCCCN)C(=O)N[C@@H](CCCCN)C(=O)N[C@@H](CCCCN)C(=O)N[C@@H](CC(C)C)C(=O)N[C@@H](CC(C)C)C(N)=O [KLLKRIKKLL]	29.5 (≈ 37 µg/mL)	22.4 (≈ 28 µg/mL)
CC(C)C[C@H](NC(=O)[C@H](Cc1ccccc1)NC(=O)[C@@H]1CCCN1C(=O)[C@H](Cc1c[nH]c2ccccc12)NC(=O)[C@H](Cc1c[nH]c2ccccc12)NC(=O)[C@H](Cc1ccc(O)cc1)NC(=O)[C@@H]1CCCN1C(=O)[C@H](Cc1ccccc1)NC(=O)[C@H](CCCN=C(N)N)NC(=O)[C@H](CCCN=C(N)N)NC(=O)[C@@H](N)C(C)C)C(=O)N[C@@H](CCCN=C(N)N)C(=O)N[C@@H](CCCN=C(N)N)C(N)=O [VRRFPYWWPFLRR]	16 (≈ 30.1 µg/mL)	

The next lines start with the values.

MIC [1] [µM]	MIC [2] [µM]	SMILES
7.8 (≈ 8 µg/mL)		CC(C)C[C@H](NC(=O)[C@H](CCC(N)=O)NC(=O)[C@H](CCCCN)NC(=O)[C@H](CCCN=C(N)N)NC(=O)[C@@H]1CCCN1C(=O)[C@H](C)N)C(=O)N[C@@H](CCCCN)C(=O)N[C@@H](Cc1c[nH]c2ccccc12)C(=O)O [APRKQLKW]
3 (≈ 8.92 µg/mL)		CC[C@H](C)[C@H](NC(=O)CN)C(=O)N[C@@H](CCSC)C(=O)N[C@@H](CC(=O)O)C(=O)N[C@H](C(=O)N[C@H](C(=O)N[C@@H](CCCCN)C(=O)N[C@@H](CC(N)=O)C(=O)N[C@@H](C)C(=O)N[C@@H](C)C(=O)N[C@@H](CCCCN)C(=O)N[C@@H](CC(=O)O)C(=O)N[C@@H](CC(C)C)C(=O)N[C@@H](C)C(=O)NCC(=O)N[C@@H](CCC(N)=O)C(=O)N[C@@H](CC(C)C)C(=O)N[C@@H](CC(C)C)C(=O)N[C@@H](CC(=O)O)C(=O)N[C@@H](CCCCN)C(=O)N[C@@H](CC(C)C)C(=O)N[C@@H](CCCCN)C(=O)N[C@H]1CSSC[C@@H](C(=O)O)NC(=O)CNC(=O)[C@H]([C@@H](C)O)NC(=O)[C@H]([C@@H](C)CC)NC(=O)[C@H](CCCN=C(N)N)NC1=O)C(C)C)[C@@H](C)O [GIMDTVKNAAKDLAGQLLDKLKCRITGC]
1.8 (≈ 2 µg/mL)	1.8 (≈ 2 µg/mL)	CC[C@H](C)[C@H](NC(=O)[C@H](CCCCN)NC(=O)[C@H](CC(C)C)NC(=O)[C@H](CC(C)C)NC(=O)CN)C(=O)N[C@H](C(=O)N[C@@H](CCCCN)C(=O)N[C@H](C(=O)N[C@@H](CC(C)C)C(=O)N[C@@H](CC(C)C)C(N)=O)[C@@H](C)O)[C@@H](C)CC [GLLKIIKTLL]
19.1 (≈ 22 µg/mL)	19.1 (≈ 22 µg/mL)	CC[C@H](C)[C@H](NC(=O)[C@H](CCCN=C(N)N)NC(=O)[C@H](CCCCN)NC(=O)[C@H](CC(C)C)NC(=O)[C@H](CC(C)C)NC(=O)CN)C(=O)N[C@@H](CCCCN)C(=O)N[C@H](C(=O)N[C@@H](CC(C)C)C(=O)N[C@@H](CC(C)C)C(N)=O)C(C)C [GLLKRIKVLL]
> 200		CC[C@H](C)[C@H](NC(=O)[C@H](CCCN=C(N)N)NC(=O)[C@H](CCCCN)NC(=O)[C@H](CCSC)NC(=O)[C@H](CC(C)C)NC(=O)CN)C(=O)N[C@@H](CCCCN)C(=O)N[C@H](C(=O)N[C@@H](CCSC)C(=O)N[C@@H](CC(C)C)C(N)=O)[C@@H](C)O [GLMKRIKTML]
> 285	142 (≈ 99.9 µg/mL)	NC(=O)[C@H](CCCN=C(N)N)NC(=O)[C@H](Cc1c[nH]c2ccccc12)NC(=O)[C@H](Cc1c[nH]c2ccccc12)NC(=O)[C@@H](N)CCCN=C(N)N [RWWR]
23.9 (≈ 25 µg/mL)	9.57 (≈ 9.99 µg/mL)	NC(=O)[C@H](Cc1c[nH]c2ccccc12)NC(=O)[C@H](CCCN=C(N)N)NC(=O)[C@H](CCCN=C(N)N)NC(=O)[C@H](CCCN=C(N)N)NC(=O)[C@H](Cc1c[nH]c2ccccc12)NC(=O)[C@@H](N)Cc1c[nH]c2ccccc12 [WWRRRW]
